As a reminder, the inhibition is the share of the control response that was lost under treatment.

Structures are written as SMILES. Where two headings read alike, the source gives them in different places.

Common to all, as to test: SelectScreen Kinase Profiling, single point inhibition and IC50 for off-target kinases
What all share (format): biochemical

For assay [1], the target named is T1, off-target kinases (Homo sapiens, UniProt O00444).
T1 sequence (O00444 1-970): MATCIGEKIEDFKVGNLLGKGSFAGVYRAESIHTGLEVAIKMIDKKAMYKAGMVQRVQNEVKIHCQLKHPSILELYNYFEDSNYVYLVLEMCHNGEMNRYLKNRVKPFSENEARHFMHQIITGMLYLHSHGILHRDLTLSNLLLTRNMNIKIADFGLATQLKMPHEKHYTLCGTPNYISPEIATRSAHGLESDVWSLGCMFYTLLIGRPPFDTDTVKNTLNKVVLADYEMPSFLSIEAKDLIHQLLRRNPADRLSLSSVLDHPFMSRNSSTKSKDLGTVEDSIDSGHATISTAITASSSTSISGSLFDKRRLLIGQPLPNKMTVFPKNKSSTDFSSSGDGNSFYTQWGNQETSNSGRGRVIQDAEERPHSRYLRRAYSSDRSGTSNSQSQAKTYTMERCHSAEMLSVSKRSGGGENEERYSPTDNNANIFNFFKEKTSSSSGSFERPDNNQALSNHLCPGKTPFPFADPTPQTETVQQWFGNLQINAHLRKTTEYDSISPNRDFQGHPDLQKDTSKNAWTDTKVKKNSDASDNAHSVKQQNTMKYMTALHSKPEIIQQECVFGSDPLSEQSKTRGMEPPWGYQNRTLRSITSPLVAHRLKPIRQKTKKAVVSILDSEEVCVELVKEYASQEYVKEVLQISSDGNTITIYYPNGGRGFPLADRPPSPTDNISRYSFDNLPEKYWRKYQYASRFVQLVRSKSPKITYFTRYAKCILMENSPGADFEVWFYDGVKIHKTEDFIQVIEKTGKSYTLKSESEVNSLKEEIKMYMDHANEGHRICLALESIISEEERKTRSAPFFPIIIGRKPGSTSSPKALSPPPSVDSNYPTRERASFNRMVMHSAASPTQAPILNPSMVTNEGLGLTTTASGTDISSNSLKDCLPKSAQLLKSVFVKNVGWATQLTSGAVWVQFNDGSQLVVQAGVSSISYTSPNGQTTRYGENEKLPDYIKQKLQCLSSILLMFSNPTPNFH
To be noted: PLK4, LanthaScreen Binding.

The target of assay [2] is T2, off-target kinases (Homo sapiens, UniProt O60285).
T2 sequence (O60285 1-661): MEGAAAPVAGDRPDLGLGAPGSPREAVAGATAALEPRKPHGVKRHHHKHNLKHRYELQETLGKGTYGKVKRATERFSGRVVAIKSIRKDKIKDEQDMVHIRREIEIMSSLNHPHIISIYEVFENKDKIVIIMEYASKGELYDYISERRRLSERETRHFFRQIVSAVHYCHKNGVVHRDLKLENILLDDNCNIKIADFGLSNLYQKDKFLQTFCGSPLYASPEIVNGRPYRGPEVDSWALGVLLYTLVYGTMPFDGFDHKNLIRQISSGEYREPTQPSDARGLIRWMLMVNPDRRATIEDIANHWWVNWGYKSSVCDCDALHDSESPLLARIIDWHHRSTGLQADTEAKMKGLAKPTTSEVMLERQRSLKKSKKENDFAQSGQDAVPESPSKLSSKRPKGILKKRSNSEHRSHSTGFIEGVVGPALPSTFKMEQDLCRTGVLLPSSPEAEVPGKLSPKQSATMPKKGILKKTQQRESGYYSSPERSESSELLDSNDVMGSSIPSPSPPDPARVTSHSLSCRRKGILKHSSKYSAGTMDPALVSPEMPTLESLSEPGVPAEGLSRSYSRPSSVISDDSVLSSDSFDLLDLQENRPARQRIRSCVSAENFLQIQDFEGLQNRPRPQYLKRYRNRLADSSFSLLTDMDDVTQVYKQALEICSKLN
To be noted: NUAK1 (ARK5), ATP Km app, Adapta.

For assay [3], the target named is off-target kinases (Homo sapiens, UniProt Q02750, S218D/S222D). Conditions: MAP2K1 (MEK1) S218D S222D (mutant), LanthaScreen Binding. For orientation: TR-FRET usually uses a lanthanide donor and a delayed reading to cut background.
Chain of off-target kinases (Homo sapiens, UniProt Q02750, S218D/S222D) (Q02750 whole entry S218D/S222D): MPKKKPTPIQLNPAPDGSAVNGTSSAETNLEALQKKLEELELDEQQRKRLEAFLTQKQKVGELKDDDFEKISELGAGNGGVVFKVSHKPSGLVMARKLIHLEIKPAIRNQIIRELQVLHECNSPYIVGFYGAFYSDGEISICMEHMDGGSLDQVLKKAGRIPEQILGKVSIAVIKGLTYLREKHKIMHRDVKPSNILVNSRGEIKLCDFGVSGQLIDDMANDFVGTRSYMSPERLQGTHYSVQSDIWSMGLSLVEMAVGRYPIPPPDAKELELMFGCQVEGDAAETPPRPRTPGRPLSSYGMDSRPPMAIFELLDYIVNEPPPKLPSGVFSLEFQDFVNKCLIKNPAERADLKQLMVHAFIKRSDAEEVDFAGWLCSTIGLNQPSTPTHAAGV
The target of assay [4] is off-target kinases (Homo sapiens, UniProt Q9UM73, C1156Y). To be noted: ALK C1156Y (mutant), LanthaScreen Binding.
Chain of off-target kinases (Homo sapiens, UniProt Q9UM73, C1156Y) (Q9UM73 19-1620 C1156Y): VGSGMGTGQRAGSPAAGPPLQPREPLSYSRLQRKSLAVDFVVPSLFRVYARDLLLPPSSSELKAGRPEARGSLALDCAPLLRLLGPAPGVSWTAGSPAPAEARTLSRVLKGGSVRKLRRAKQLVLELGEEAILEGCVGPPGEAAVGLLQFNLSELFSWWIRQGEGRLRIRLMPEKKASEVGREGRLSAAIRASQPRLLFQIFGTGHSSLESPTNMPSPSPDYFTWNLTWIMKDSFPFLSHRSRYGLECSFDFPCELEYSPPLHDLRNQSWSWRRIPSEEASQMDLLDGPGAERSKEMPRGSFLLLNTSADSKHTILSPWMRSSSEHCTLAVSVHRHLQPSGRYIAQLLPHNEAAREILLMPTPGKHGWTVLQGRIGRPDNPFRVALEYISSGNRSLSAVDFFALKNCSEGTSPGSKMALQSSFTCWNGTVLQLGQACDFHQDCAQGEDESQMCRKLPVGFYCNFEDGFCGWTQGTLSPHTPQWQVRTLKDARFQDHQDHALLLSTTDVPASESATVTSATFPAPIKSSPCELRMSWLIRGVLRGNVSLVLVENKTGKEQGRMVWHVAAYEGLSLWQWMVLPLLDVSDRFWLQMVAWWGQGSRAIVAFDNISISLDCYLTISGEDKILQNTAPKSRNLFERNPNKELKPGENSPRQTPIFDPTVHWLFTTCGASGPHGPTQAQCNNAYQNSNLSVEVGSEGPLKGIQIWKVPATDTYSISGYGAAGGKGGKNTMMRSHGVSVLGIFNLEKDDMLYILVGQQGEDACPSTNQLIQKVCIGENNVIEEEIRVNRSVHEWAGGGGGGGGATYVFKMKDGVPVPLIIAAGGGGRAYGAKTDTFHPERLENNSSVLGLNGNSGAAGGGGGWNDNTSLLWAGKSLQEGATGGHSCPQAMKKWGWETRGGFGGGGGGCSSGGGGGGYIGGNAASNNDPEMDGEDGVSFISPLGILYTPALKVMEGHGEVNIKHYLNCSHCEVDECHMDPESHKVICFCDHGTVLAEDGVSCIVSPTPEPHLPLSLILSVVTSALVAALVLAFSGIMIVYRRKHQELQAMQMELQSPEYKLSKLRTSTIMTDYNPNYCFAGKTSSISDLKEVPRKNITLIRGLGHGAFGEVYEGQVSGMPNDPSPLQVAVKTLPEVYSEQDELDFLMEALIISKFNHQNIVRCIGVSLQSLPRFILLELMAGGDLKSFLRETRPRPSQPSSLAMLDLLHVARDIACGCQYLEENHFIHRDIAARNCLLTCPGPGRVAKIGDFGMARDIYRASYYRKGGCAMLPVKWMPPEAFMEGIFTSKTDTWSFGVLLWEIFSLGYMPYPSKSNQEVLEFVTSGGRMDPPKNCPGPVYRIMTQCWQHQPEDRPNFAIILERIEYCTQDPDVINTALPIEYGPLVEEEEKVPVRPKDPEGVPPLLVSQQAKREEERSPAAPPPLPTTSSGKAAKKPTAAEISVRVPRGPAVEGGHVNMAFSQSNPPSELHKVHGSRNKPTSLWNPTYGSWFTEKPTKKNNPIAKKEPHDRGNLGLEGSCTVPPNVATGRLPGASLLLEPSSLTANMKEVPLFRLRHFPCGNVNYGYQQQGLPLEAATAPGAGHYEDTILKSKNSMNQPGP

`N#Cc1cc(-c2ncnc(Nc3ccc(N4CCN(C5COC5)CC4)cc3)n2)ccc1OC1CCOCC1` [Compound 1, 5-(4-((4-(4-(oxetan-3-yl)piperazin-1-yl)phenyl)amino)-1,3,5-triazin-2-yl)-2-((tetrahydro-2H-pyran-4-yl)oxy)benzonitrile]: the inhibition at off-target kinases [1] (read-out: % Inhibition 1) was 96%; at off-target kinases [1] (read-out: % Inhibition 2) it was 95%; at off-target kinases [1] (read-out: % Inhibition Avg), 96%; on off-target kinases [2] (read-out: % Inhibition 1), 83%; at off-target kinases [2] (read-out: % Inhibition 2), 83%; on off-target kinases [2] (read-out: % Inhibition Avg), 83%. Also, the inhibition on off-target kinases [3] (read-out: % Inhibition 1) was determined as 10%; at off-target kinases [3] (read-out: % Inhibition 2), 7%; on off-target kinases [3] (read-out: % Inhibition Avg) it was 8%; on off-target kinases [4] (read-out: % Inhibition 1), 7%; at off-target kinases [4] (read-out: % Inhibition 2), 12%; at off-target kinases [4] (read-out: % Inhibition Avg) it was 9%.

For the origin of these results see US11572590B2, “Methods for evaluating tumor cell spheroids using 3D microfluidic cell culture device” (Dana-Farber Cancer Institute, Inc., priority 2017, dated 2023).
